Data on two molecules can be found in patent publication US20090247647A1, “Method of Stimulating Proteoglycan Synthesis in Cells” (priority 2006, published 2009).

This assay deals with avian growth plate (GP) chondrocytes. Briefly: Proteoglycan levels (dimethylmethylene blue assay) in primary growth plate chondrocyte cultures treated with vitamin D3 metabolites. It counts as cell-based, hybrid broiler-strain chickens. As for the experimental part:
Time and dosage-dependent effects of 1,25(OH)2 Vitamin D3 and 24,25(OH)2 Vitamin D3 on primary cultures of pre- and post-confluent avian growth plate (GP) chondrocytes were examined. Cultures were grown either in a serum-containing culture medium designed to closely mimic normal GP extracellular fluid (DATP5) or a serum-free culture medium. A variety of cellular parameters were measured including proteoglycan (PG), lactate dehydrogenase (LDH) and alkaline phosphatase (ALP) activity and calcium and phosphate mineral deposition in the extracellular matrix were also measured.
To develop the cell cultures, epiphyseal growth plates were dissected from the tibiae of a large number of 6-8-week-old hybrid broiler-strain chickens. The plates were pooled and the chondrocytes isolated. For these studies, the isolated cells were distributed into 320 identical primary cultures grown in 35 mm dishes in DMEM (2 ml per dish) with 10% fetal bovine serum for the first 3-4 days. Culture media were changed and a supplement of fresh ascorbic acid (25-50 μg/ml) added every 3-4 days for the duration of the experiments. From day 7 onward for 160 of the cultures, the medium was changed to DATP5 mineralization medium. To the other 160 dishes on day 7 the medium was changed to DMEM:HL-1 (1:1) and from day 10 onward to HL-1 serum-free medium (Biowhittaker, Walkersville, Md.). HL-1 chemically defined proprietary media contains transferrin, testosterone, sodium selenite, ethanolamine, saturated and unsaturated fatty acids, and stabilizing proteins (less than 30 μg/ml) and is supplemented with 10 mM β-glycerophosphate. […] All culture media contained 100 IU/ml of penicillin, 100 μg/ml streptomycin, and 0.25 μg/ml amphotericin B.
Administration of the vitamin D3 metabolites was initiated either before the cells attained confluence (Day 7, pre-confluent tests), or after they had become confluent (Day 14, post-confluent tests), and continued as indicated. Stock solutions (2 mM) of the vitamin D3 metabolites were prepared and further diluted in ethanol so that 2 μl of the test solution was added to 2 ml of culture medium.
To analyze biochemical activities, cells were harvested from the mm dishes in 1 ml TMT buffer (50 mM Tris, pH 7.5, 0.5 mM MgCl2, 0.05% Triton X-100), the samples being sonicated in a water-bath. Aliquots were taken from each sample for analysis of the following seven parameters: alkaline phosphatase (ALP) and lactate dehydrogenase (LDH) activities, Hoechst DNA, Lowry protein, proteoglycan (PG) and Ca^2+ and Pi mineral content. […] Bovine serum albumin was used as a standard. Proteoglycan content of the cell matrix was analyzed using the dimethylmethylene blue reagent 11 measuring the absorbency difference at 520 and 589 nm. The assay is based on the ability of the sulfated glycosaminoglycans to bind to the cationic dye, dimethylmethylene blue, in solution.
Thus within each sample, the seven parameters were analyzed and subsequently compared. Overall statistical analysis of differences between the various treatment parameters was performed using ANOVA with post hoc Tukey HSD multiple comparisons.

The mark [1] stands for this setting: pre-confluent cultures, serum-containing DATP5 medium, early exposure (Day 7-17).

For the molecule `C=C1/C(=C\C=C2/CCC[C@]3(C)[C@@H]([C@H](C)CCCC(C)(C)O)CC[C@@H]23)C[C@@H](O)C[C@@H]1O` [1,25(OH)2D3, 1,25 Hydroxyvitamin D3], under “post-confluent treatment (from Day 14), both serum-containing and serum-free cultures”, the “effect of high levels on proteoglycan levels” value is listed as “no longer inhibitory, but actually increased proteoglycan levels”. The “effect on proteoglycan levels” value under setting [1] is reported as “marked dosage-dependent increase”. Where the note is “pre-confluent cultures, serum-containing DATP5 medium, early exposure (Day 7-17), 10 nM”, the “increase in proteoglycan levels over the control” value is given as “more than four-fold”. Besides, the “effect of supra-physiological levels on proteoglycan levels” value (pre-confluent cultures, serum-free HL-1 medium, 10 nM) is given as “marked reduction in proteoglycan levels”. The “maximal stimulation of proteoglycan levels” value (pre-confluent cultures, serum-free HL-1 medium, Day 24) was about 7 fold.
For the molecule `C=C1CC[C@H](O)C/C1=C/C=C1\CCC[C@]2(C)[C@@H]([C@H](C)CC[C@@H](O)C(C)(C)O)CC[C@@H]12` [24,25(OH)2D3, 24,25 Hydroxyvitamin D3], the effect on proteoglycan result (post-confluent exposure (from Day 14)) was “only small effects”. Moreover, the “effect on proteoglycan levels” value reads like this: under setting [1], “minimal stimulation”; (pre-confluent cultures, serum-containing DATP5 medium, longer exposure) “significant increases in proteoglycan levels, equal to or greater than those caused by 1,25(OH)2D3”. The “concentration of maximal stimulation of proteoglycan levels” value (pre-confluent cultures, serum-free HL-1 medium) is given as 10 nM. For the same molecule, for the setting “pre-confluent cultures, serum-free media”, the “effect on proteoglycan formation” value is “stimulated proteoglycan formation”. The “effect of supra-physiological levels on proteoglycan formation” value (pre-confluent cultures, serum-free media, 100 nM) is “inhibitory to proteoglycan formation”. Moreover, under “pre-confluent cultures, serum-free media, at 10 nM”, the “maximal effects on proteoglycan formation relative to those with 1,25(OH)2D3” value is reported as “only about half”.
